The record followed here is patent EP2050748A1, “Novel fused pyrimidines” (Bayer Schering Pharma Aktiengesellschaft, priority 2007, dated 2009).

Each structure is given as a SMILES string.

In experiment [1] the test system is phosphorylated Akt protein (Ser473). As to the kind of experiment: Cellular PI3K / Akt pathway assay (phospho-Akt ELISA). It is filed as cell-based. Conditions: Homo sapiens; MCF7 cells, stimulated with ß-Heregulin (20ng/ml), compound incubated 48h, phospho-Akt1 (Ser473) ELISA. The protocol: In order to study the cellular activity of the compounds according to the present invention, an Enzyme Linked Immunosorbent Assay (ELISA)-based assay has been used specific phospho-AKT. The assay is based on a Sandwich ELISA kit (PathScan™ Phospho-Akt1 (Ser473); Cell Signaling, USA; #7160).
The ELISA Kit detects endogenous levels of phosphorylated Akt protein. A phospho-Akt (Ser473) antibody (Cell Signaling, USA; #9271) has been coated onto the microwells. After incubation with cell lysates, the coated antibody captures the phosphorylated Akt protein. Following extensive washing, Akt1 monoclonal antibody (Cell Signaling, USA; #2967) is added to detect the captured phospho-Akt1 protein. HRP-linked anti-mouse antibody (HRP: horseradish peroxidase; Cell Signaling, USA; #7076) is then used to recognize the bound detection antibody. HRP substrate (= 3,3',5,5'-tetramethylbenzidine (TMB); Cell Signaling, USA; #7160) is added to develop colour. The magnitude of optical density for this developed color is proportional to the quantity of phosphorylated Akt protein.
MCF7 cells (ATCC HTB-22) are seeded into 96 well fate bottom plates at a density of 10000 cells/well. 24 hours after seeding, the cells are serum starved using low-serum medium (IMEM media including 0,1% charcoal treated FCS (FCS: fetal calf serum)). After 24 hours 1 µl each of the compound dilutions (test compounds were dissolved as 10 mM solutions in dimethylsulfoxide (DMSO) and subsequently diluted) are added into each well of the 96 well plates and incubated for 48h at 37°C in a humidified athmosphere containing 5% CO2. To stimulate Akt phosphorylation, ß-Heregulin (20ng/ml β-HRG) is added in parallel to the compounds. Wells containing unstimulated control cells (no β-Heregulin stimulation) are incubated with or without the diluted compound. Wells containing untreated control cells (no compound) are filled with medium containing 0.5% v:v DMSO and are or are not stimulated with β-Heregulin.
Cells are harvested and lysed with brief sonification in 1x x cell lysis buffer (20mM Tris (pH7.5), 150 mM NaCl, 1 mM ethylene diaminetetraacetate (EDTA), 1 mM ethylene glycolbis(2-aminoethyl)-N,N,N',N'-tetraacetic acid (EGTA), 1vol% Triton X-100, 2.5mM sodium pyrophosphate, 1 mM β-glycerolphosphate, 1 mM Na3VO4, 1 µg/ml leupeptin). The lysate is centrifuged for 10 min. at 4°C and the supernatant is transferred to a new tube. 100 µl of sample diluent (0.1vol% Tween-20, 0.1vol% sodium azide in phosphate buffered saline (PBS)) are added to a microcentrifuge tube and 100 µl of cell lysate are transferred into the tube and vortexed. 100 µl of each diluted cell lysate are added to the appropriate ELISA well, and incubated overnight at 4°C. The plates are washed 4 times with 1 x wash buffer (1 vol% tween-20, 0.33vol% thymol, in PBS). Next 100 µl of detection antibody (Akt1 (2H10) monoclonal detection antibody; Cell Signaling, USA; #2967) are added to each well and incubation continued for 1 h at 37°C. The washing procedure is repeated between each step. 100µl of secondary antibody (anti-mouse IgG HRP-linked antibody; Cell Signaling, USA; #7076) are added to each well and incubated for 30 min. at 37°C. Than, 100µl of TMB substrate (0.05% 3,3',5,5' tetramethylbenzidine, 0.1 % hydrogen peroxide, complex polypeptides in a buffered solution; Cell Signaling, USA; #7160) are added to each well and incubated for 30 min. at 25°C. Finally 100 µl of STOP solution (0.05vol% α and β unsaturated carbonyl compound) are added to each well and the plate are shaked gently. The absorbance is measured at λ=450 nm (Wallac Victor2; Perkin Elmer, USA) within 30 min. after adding the STOP solution. The analysis of the data is performed using a statistical program (Excel; Microsoft, USA). Preferred compounds show an inhibitory activity towards Akt phosphorylation below 10µM.
(In general: An ELISA detects its analyte on a solid surface through an enzyme-linked reagent.)

For experiment [2], the system named is phosphorylated GSK3 (Ser9). The experiment in a line: Cellular pGSK3 assay (phospho-GSK3 ELISA). The settings on record: Homo sapiens, MCF7 cells, compound incubated 48h. It is filed as cell-based. The protocol:
In order to study the cellular activity of the compounds according to the present invention, an ELISA-based assay has been established for the phosphorylated protein glycogen synthetase kinase 3 (GSK3). The assay is based on a solid phase sandwich ELISA that detects endogenous levels of phosphorylated GSK3 using a phospho-GSK3 (Ser9) specific antibody (BioSource International, Inc.; Catalog #KHO0461). After incubation with cell lysates, the coated antibody captures the phosphorylated GSK3 protein. Following extensive washing, GSK3 polyclonal antibody is added to detect the captured phospho-GSK3 protein. Secondary antibody (anti-rabbit IgG-HRP) is then used to recognize the bound detection antibody. After the second incubation and washing to remove all the excess anti-rabbit IgG-HRP, a substrate solution is added, which is acted upon by the bound enzyme to produce color. The intensity of this colored product is directly proportional to the concentration of GSK-3β [pS9] present in the original specimen. MCF7 cells (ATCC HTB-22) were seeded into 96 well fate bottom plates at a density of 10000 cells/well. After 24 h 1 µl each of the compound dilutions (test compounds were dissolved as 10 mM solutions in dimethylsulfoxide (DMSO) and subsequently diluted) were added into each well of the 96 well plates and incubated for 48h at 37°C in a humidified athmosphere containing 5% CO2. Cells were harvested and lysed in cell extraction buffer (10 mM Tris, pH 7.4, 100 mM NaCl, 1 mM EDTA, 1 mM EGTA, 1 mM NaF, 20 mM Na4P2O7, 2 mM Na3VO4, 1% Triton X-100, 10vol% glycerol, 0.1vol% SDS, 0.5vol% deoxycholate, 1 mM phenylmethylsulfonylfluorid (PMSF)). The lysate were centrifuged for 10 min. at 4°C and the supernatant were transferred to a new tube. 50 µl of sample diluent (standard diluent buffer, Biosource) were added and 100 µl of cell lysate transferred into the tube and vortexed. 100 µl of each diluted cell lysate were added to the appropriate ELISA well plate and incubated for 3h at room temperature. The plates were washed 4 times with 1x wash buffer (Biosource). 50 µl of detection antibody (GSK3 (Ser9) detection antibody; BioSource) were added to each well and incubated for 30 min. at room temperature. The washing procedure was repeated between each step. 100µl of HRP-linked secondary antibody (anti-mouse IgG HRP-linked antibody) were added to each well and incubated for 30 min. at room temperature. 100µl of TMB substrate (0.05vol% 3,3',5,5' tetramethylbenzidine, 0.1vol% hydrogen peroxide, complex polypeptides in a buffered solution; Biosource) were added to each well and incubated for 30 min. at room temperature. Finally 100 µl of Stop solution (0.05vol% α and β unsaturated carbonyl compound) were added to each well and the plate were shaked gently for a few seconds. The absorbance was measured at λ = 450 nm (Wallac Victor2; Perkin Elmer, USA) within 30 min. after adding the stop solution. The analysis of the data was performed using a statistical program (Excel; Microsoft, USA) and the IC50 of pGSK3 inhibition was determined.

Usually IC50 stands for the concentration needed to halve the response being measured. In the case of `Brc1cnc2nc(-c3ccc(CN4CCC(c5n[nH]c(-c6ccccn6)n5)CC4)cc3)c(-c3ccccc3)cn12` [Example 11, 3-bromo-6-phenyl-7-(4-{[4-(5-pyridin-2-yl-1,2,4-triazol-3-yl)piperidin-1-yl]methyl}phenyl)imidazo[1,2-a]pyrimidine], the IC50 in experiment [1] and in experiment [2] was < 1 µM each time.
`c1ccc(-c2cn3ncnc3nc2-c2ccc(CN3CCC(c4n[nH]c(-c5ccccn5)n4)CC3)cc2)cc1` [Example 2, 6-phenyl-5-(4-([4-(5-pyridin-2-yl-1,2,4-triazol-3-yl)piperidin-1-yl]methyl}phenyl)[1,2,4]triazolo[1,5-a]pyrimidine]: the IC50 in experiment [1] was < 1 µM; in experiment [2], 1 to 10 µM.
The like results for `Clc1cnc2nc(-c3ccc(CN4CCC(c5n[nH]c(-c6ccccn6)n5)CC4)cc3)c(-c3ccccc3)cn12` [Example 12, 3-chloro-6-phenyl-7-(4-{[4-(5-pyridin-2-yl-1,2,4-triazol-3-yl)piperidin-1-yl]methyl}phenyl)imidazo[1,2-a]pyrimidine] were, in that order, < 1 µM and 1 to 10 µM.
Regarding `Fc1cnc2nc(-c3ccc(CN4CCC(c5n[nH]c(-c6ccccn6)n5)CC4)cc3)c(-c3ccccc3)cn12` [Example 9, 3-fluoro-6-phenyl-7-(4-{[4-(5-pyridin-2-yl-1H-1,2,4-triazol-3-yl)piperidin-1-yl]methyl}phenyl)imidazo[1,2-a]pyrimidine], the IC50 in experiment [1] was < 1 µM; in experiment [2], 1 to 10 µM.
As to `C=Cc1cnc2nc(-c3ccc(CN4CCC(c5n[nH]c(-c6ccccn6)n5)CC4)cc3)c(-c3ccccc3)cn12` [Example 15, 6-phenyl-7-(4-{[4-(5-pyridin-2-yl-1,2,4-triazol-3-yl)piperidin-1-yl]methyl}phenyl)-3-vinylimidazo[1,2-a]pyrimidine], the half-inhibitory concentration (IC50) was < 1 µM in experiment [1] and 1 to 10 µM in experiment [2].
In the same order, the values of `Cc1nc2nc(-c3ccc(CN4CCC(c5n[nH]c(-c6ccccn6)n5)CC4)cc3)c(-c3ccccc3)cn2n1` [Example 3, 2-methyl-6-phenyl-5-(4-{[4-(5-pyridin-2-yl-1,2,4-triazol-3-yl)piperidin-1-yl]methyl}phenyl)[1,2,4]triazolo[1,5-a]pyrimidine] are < 1 µM and 1 to 10 µM.
The like results for `c1ccc(-c2cn3ccnc3nc2-c2ccc(CN3CCC(c4nc(-c5ccccn5)n[nH]4)CC3)cc2)cc1` [Example 1, 6-phenyl-7-(4-{[4-(3-pyridin-2-yl-1,2,4-triazol-5-yl)piperidin-1-yl]methyl}phenyl)imidazo[1,2-a]pyrimidine] were, in that order, < 1 µM and < 1 µM.
